# According to the pKa sets of Baltruschat and Czodrowski (2020):
# Where a SMILES comes first, the peptide text is derived from it.
# Conditions: acidic group
row,Compound,pKa
1,CCS(=O)O,2.27
2,Fc1cccc(NC(=S)c2ccccc2)c1,10.3
3,O=S(=O)(NCc1ccccc1)c1ccc(Br)cc1,10.7
4,CC[NH+](CC)Cc1cc(Br)ccc1O,7.7
5,Oc1ccc(/N=N/c2nc3ccccc3s2)c2cccnc12,7.2
6,CC(=O)OCC(=N/[O-])/C(C)=N/O,11.5
7,Cc1c[nH]c(C(=O)O)c1,4.6
8,CC(=O)CC(N)=O,10.4
9,O=C(O)c1cncs1,2.99
10,O=C(O)/C=C\c1c[nH]c[nH+]1,3
11,Cc1ccc(S(=O)(=O)NCCC(N)=[NH2+])cc1,9.49
12,C[S+](C)c1cccc(O)c1,7.67
13,Cc1cc(Nc2ccc(O)cc2)c(C(C)C)cc1O,9.85
14,CC(C)(C)CC#CC(=O)O,2.54
15,[S-]c1ncnc2nc[nH]c12,10.9
16,O=C(NO)c1ccccc1O,7.39
17,O=C(O)c1ccc2[nH]ccc2c1,4.1
18,O=C(O)[C@@H]1O[C@H](Oc2ccc3[nH+]cccc3c2)[C@@H](O)[C@H](O)[C@H]1O,3
19,CC(=O)[n+]1ccc(N(C)C)cc1,9.55
20,C=CC[NH+](C)CCCNC(=O)/C=N/O,8.48
21,COc1ccccc1O,9.7
22,CC(=O)Oc1cccc2cccc(O)c12,9.69
23,Oc1[nH+]ccc2cccnc12,2.64

row,Compound,pKa
1,O=[PH](O)C([NH2+]Cc1cc[nH+]cc1)c1ccccc1O (stereo unspecified),2.35
2,O=C(O)c1cc([N+](=O)[O-])cs1,2.83
3,O=C(O)c1cnc(Cl)s1,3
4,O=C(O)CCc1ccc([N+](=O)[O-])cc1,4.54
5,NNC(=O)CF,11.3
6,CSC(=S)NCC(=O)O,3.19
7,Cc1cccc(Cl)c1O,8.7
8,Cc1ccc(C(=S)Nc2ccc(Cl)c(Cl)c2)cc1,10.2
9,Cc1cc2nc3ccc(N(C)C)cc3nc2cc1N,14.7
10,Cc1cc(Cc2cc(O)ccc2C)c(O)c([N+](=O)[O-])c1,7.93
11,CC(=O)NC(CS)C(=O)O (stereo unspecified),3.08
12,O=C([O-])[C@@H]1CC[C@H](C(=O)O)C1,5.52
13,[NH3+]CCCCC#CC#CCCC(=O)O,4.15
14,Sc1nc2cc3ccccc3cc2[nH]1,9.84
15,O=C(O)Cn1cnnn1,2.27
16,O=C(O)c1ccc2cc3ccccc3cc2c1,4.18
17,Oc1ccc2c(c1)CCCC2,10.3
18,COCCO,14.9
19,N#Cc1ccc(NS(=O)(=O)c2ccccc2)cc1,6.78
20,O=C1CCC(C(=O)O)N1 (stereo unspecified),3.25
21,CC(C)CCC(=O)O,4.84
22,COc1ccc(C(=O)S)cc1,2.79
23,O=C(O)[C@H]1C[C@H]2CC[C@@H]1C2,5.08

row,Compound,pKa
1,CC/C(=N/O)C(C)=O,9.38
2,CC(=O)C(C)C(=O)c1ccccc1 (stereo unspecified),11.1
3,O=C(CC(=O)c1ccccc1)Nc1cccc([N+](=O)[O-])c1,9.54
4,Cc1cc(OS(=O)(=O)[O-])c2oc(-c3cc4ccc(O)cc4oc3=O)nc2c1,6.8
5,Cc1cc(O)n(C2CC[NH+](C)CC2)n1,6.63
6,O=C(c1ccc(Cl)cc1)c1cc[nH]n1,11.9
7,O=C([O-])/C=C/C([O-])=C/C(=O)CC(=O)[O-],10.5
8,C[Si](C)(C)CCCCCC(=O)O,5.06
9,Cc1cccc(O)c1,10
10,S=C(S)NC1CCCCC1,2.95
11,Oc1ccc(I)cc1,9.32
12,CCOC(=O)COc1ccc(C(=O)c2ccc(O)c(C[NH3+])c2)cc1,7.34
13,CC#CCC(=O)O,3.6
14,CC1(C)NC(=S)NC1=S,7.65
15,Cn1cnc2c(N=O)c(O)ccc21,6.76
16,CC(=O)N(c1ccccc1)c1nnc(S(N)(=O)=O)s1,7.32
17,CCc1cc([N+](=O)[O-])cc(CC)c1O,7.73
18,Oc1ccc2ccnnc2c1,7.56
19,O=C(O)CCP,4.23
20,C/C(=N\O)C(=O)[O-],11.4
21,C=C(C)/C(C)=C(\C)O,12
22,O=C1C[C@H](C(=O)O)[C@@H](C(=O)[O-])O1,3.82
23,Sc1cccc(Cl)c1,5.76

row,Compound,pKa
1,Nc1ccc(S(=O)(=O)Nc2ccn(-c3cccc([N+](=O)[O-])c3)n2)cc1,7.03
2,Oc1c2ccccc2[nH+]c2ccccc12,0.32
3,O=C(O)CCCl,4.04
4,C/C(O)=C/C(N)=O,9.46
5,O=C(O)C[C@]1(O)C[C@@H]2C=C[C@H]1C2,4.36
6,COc1cccc(CCC(=O)O)c1,4.65
7,N#CCC(C(=O)O)c1ccccc1 (stereo unspecified),3.44
8,COC(=O)c1cccc(NC=S)c1,10.8
9,[O-]/N=C1\CCCCC\C1=N/O,12.3
10,COc1ccc(S(=O)(=O)NCc2ccccc2)cc1,11.5
11,Cc1ccccc1[N+](C)(C)O,4.78
12,Cc1ccc(=O)c(O)c(Br)c1,6.41
13,CCCCc1cc(Cl)cc(Cl)c1O,8.1
14,O=C([O-])c1cc(O)c(O)c(C(=O)[O-])[o+]1,9.82
15,Cc1ncsc1C(=O)O,3.54
16,C=CC(=O)O,4.25
17,COc1cccc(OC)c1O,10.1
18,Cc1n[nH]c(O)c1-c1ccccc1,11.4
19,Cc1n[nH]c2c1c(=O)n(C)c(=O)n2C,9.83
20,CC1C(=O)CC(C)(C)CC1=O,5.6

# Same assay, conditions: basic group
row,Compound,pKa
1,C=C(C)C(=O)OCCN(C)C,8.06
2,OC1C=CC=CC=C1,-7
3,O=C([O-])c1cccc2cc3ccccc3nc12,7.72
4,N/C(=[NH+]\O)c1ccccc1N,2.2
5,c1ccc(C(CCN2CCCCC2)c2ccccc2)cc1,8.96
6,COc1cnnc2ccccc12,3.21
7,Nc1cccc2cncnc12,2.81
8,Nc1nc[nH+]c(N)c1N,1.47
9,CSc1nc(N)n[nH]1,3.27
10,C#CC(C)(C)N(C)C(C)C,8.7
11,CCc1cnnc(C)c1,4.17
12,Cc1cc(-c2ccccc2)nn(C)/c1=N/CCN1CCOCC1,10.4
13,COCCNc1ccc(Cl)cc1,3.3
14,O=C([O-])[C@@H]1O[C@H](Oc2ccc3ncccc3c2)[C@@H](O)[C@H](O)[C@H]1O,5
15,C1CCc2nnc3c(c2CC1)CCCC3,6.03
16,COC1=CC=C2[C@@H]3Cc4ccc(OC)c5c4[C@]2(CCN3C)[C@@H]1O5,8.15
17,CCCN(N)CCC,7
18,[S-]c1ncnc2nc[nH]c12,7.74
19,CC(=O)CCN(C)C,8.95
20,Nc1ncc(Br)s1,3.61
21,Cc1ccnnc1,3.22
22,CCCN1CCCCC1,10.4

row,Compound,pKa
1,C/C(=C\C=C\C(C)C(=O)[O-])[C@H]1CN[C@H](C(=O)[O-])[C@H]1CC(=O)[O-] (stereo partly specified),9.82
2,Cc1cc2nc3ccc(N(C)C)cc3nc2cc1N,7.18
3,Cc1ccc(NC(C)(C)C)cc1,7.3
4,[NH3+]c1ccc(-c2ncc(-c3ccc(Cl)cc3)o2)cc1,-0.1
5,CNc1ncccn1,3.82
6,OCCCCc1cccnc1,5.7
7,Cc1ccc(N2CCCC2)cc1,4.69
8,CC(C)C[C@H](N)C(=O)[O-],9.62
9,O=C(N/[NH+]=C/c1ccccc1)c1ccncc1,1.82
10,O=C([O-])c1cc2cc(Cn3ccnc3)ccc2s1,6.77
11,c1ccc(Oc2ccnc3c2ccc2c(Oc4ccccc4)ccnc23)cc1,5.34
12,NCCCCN,10.6
13,CCN1CCCC1C (stereo unspecified),10.6
14,COc1cc(Br)cc(C(=O)N[C@@H]2C[C@H]3CC[C@@H](C2)N3Cc2ccccc2)c1OC,8.84
15,NCc1ccc([N+](=O)[O-])cc1,8.5
16,COc1ccc(C(=O)S)cc1,-4.9
17,c1ccc2c(c1)C1CCN2CC1,7.79
18,CN(C)c1ccc2cc3ccc(N(C)C)cc3nc2c1,10.4
19,CN/C=[NH+]/c1cccc(-c2csc(N=C(N)N)n2)c1,6.29
20,C1CCC(N2CCCC2)CC1,10.7
21,CCCCCCCCCCCCCCCCCN,10.6
22,O=Cc1ccccn1,3.86

row,Compound,pKa
1,CCCCSC1=NCCN1,9
2,[O-]c1c(Cl)cc(Cl)cc1CN1CCOCC1,8.85
3,CCCCc1c(C)nc(NCC)nc1[O-],11
4,CN1CCC[C@H]1c1cccnc1,7.85
5,CCN(CC)CCNc1nc(N)nc(C)c1C,9.7
6,[S-]c1ccnc2ccccc12,8.83
7,CCOC(=O)COc1ccc(C(=O)c2ccc([O-])c(CN)c2)c(Cl)c1Cl,10.6
8,CCN(CC)CCN(CC)CC,9.55
9,CCN(C(C)C)C(C)C,11.4
10,CC(=O)c1ccc(/N=N/c2c(N)n[nH]c2N)cc1,3.32
11,CCCCCCCCCCCCN(CC(C)O)CC(C)O (stereo unspecified),7.8
12,CC(C(O)c1ccccc1)N(C)C (stereo unspecified),9.3
13,CCNCC(=O)N(CC)CC,8.78
14,CCC(=O)C(CC(C)N(C)C)(c1ccccc1)c1ccccc1 (stereo unspecified),8.62
15,CN1CCC(NN)CC1,8.85
16,Cn1cnc2c(N=O)c(O)ccc21,3.31
17,C[Si](C)(C)CN,10.9
18,c1cc(C2CCCN2)nc(C2CCCN2)c1 (stereo unspecified),10.1
19,CCN(CC)CCOCCN(C)C,10.2
20,NCC(=O)NCC(=O)NCC(=O)N1CCC[C@H]1C(=O)[O-] (H-GGGP-OH),8.04
21,Cc1ccc2c(ccn2C)c1,-2.15
22,COCc1cccc(COC)n1,3.43

row,Compound,pKa
1,CCOc1ccc2nc(/C=C/c3ccccc3)cc(N)c2c1,9.5
2,c1ccc(-c2ccc3ncc(C[NH+]4CCOCC4)n3n2)cc1,2.91
3,Oc1ccc2ccnnc2c1,3.31
4,O=C([O-])CN(CC(=O)[O-])Cc1ccccc1[O-],11.8
5,CSC(C)=N,6.71
6,NCC(O)c1ccc(Cl)cc1 (stereo unspecified),9.04
7,CC(N)=S,-2.51
8,CN[C@H]1C(C)[C@@H]1[NH2+]C (stereo partly specified),5.68
9,NCc1cccc(O)c1,9.06
10,NCCCCBr,10
11,Nc1cccc(-c2ccccc2)c1,4.28
12,CC(N)CO (stereo unspecified),9.43
13,[NH3+]C1CCN(Cc2ccccc2)CC1,7.05
14,C=C(C)C(=O)OCCNC,8.96
15,Cc1cc(Br)cc(C)c1N,3.54
16,Cc1cc(C)c2nccc(NCCC[NH+](C)C)c2c1[N+](=O)[O-],6.37
17,Nc1nc(NCCO)nc(NCCO)n1,5.18
18,C[NH2+]CCN(C)CC[NH2+]C,3.13
19,CN[C@H]1C[C@H]1NC,8.73
20,CC(=O)N1CCNc2ncnc(C)c21,5.26
21,Cc1cccc(N)c1-c1c(C)cccc1N,3.7
